Test results published in patent US6919331B2, “Substituted 2-methyl-benzimidazole respiratory syncytial virus antiviral agents” (Bristol-Myers Squibb Company, priority 2001, dated 2005).

Tested on: respiratory syncytial virus Long strain
Assay: cell protection assay (RSV-induced cytopathic effects, MTT staining)
Type: cell-based
Description: For cell protection assays, HEp-2 (ATCC CCL 23) cells were seeded in 96 well microtiter plates at 1.5×10^4 cells/100 μL/well in DMEM (Dulbecco's Modified Eagle's Medium) supplemented with penicillin, streptomycin, glutamine, and 10% fetal bovine serum. After overnight incubation at 37° C., the culture medium was removed and cells were infected with respiratory syncytial virus Long strain at 5000 plaque forming units (PFU)/mL in a 100 μL volume of medium containing 2% fetal bovine serum. The compounds, 100 μL at appropriate dilution, were added to the cells one hour post infection. After incubation for 4 days at 37° C., the plates were stained with MTT solution (3-[4,5-dimethlythiazol-2-yl]-2,5-diphenyltetrazolium bromide) and incubated for 4 hours at 37° C. The media was aspirated from the cells and 100 μL/well of acidified isopropanol (per liter: 900 mL isopropanol, 100 mL Triton X100, and 4 mL conc. HCl) was added. Plates were incubated for 15 minutes at room temperature with shaking, and an optical density (OD 540) reading at 540 nanometer (nm) was obtained. The optical density reading is proportional to the number of viable cells. The increase in the number of viable cells reflects the protective, antiviral activity of the compound. […]

NC(=O)c1ncn([C@@H]2O[C@H](CO)[C@@H](O)[C@H]2O)n1 [Ribavirin]
cell protection (at 2.5 μg/mL (corresponding to 10.2 μM), HEp-2 cells, RSV Long strain): 100% | EC50 (human respiratory syncytial virus, HEp-2 cells infected with RSV Long strain, compound added one hour post infection, 4 days, MTT, read-out: EC50 (concentration that produces 50% cell protection)): 3000 nM
